Measurements reported in US11124541B2, “Chimeric melanocortin ligands and methods of use thereof” (REGENTS OF THE UNIVERSITY OF MINNESOTA, priority 2016, dated 2021).
Where “and” joins values, the source holds several entries; their conditions need not be identical. Equal entries are not always repeated. Where two headings read alike, the source gives them in different places. Blank lines part the entries; values can stand above or below the molecule they belong to. Non-standard residues stand in square brackets, D forms with d. Residues, ends and D or L forms follow the SMILES beside them. No end group written: not given here. Dap = NC[C@H](N)C(=O)O

Experiments:
[1] = test system: male mice; assay: ICV or IT administration in male mice monitored in TSE metabolic cages; format: in vivo
Description: As described herein, compound 2 (c[Pro-His-DPhe-Arg-Trp-Dap-Ala-DPro] (SEQ ID NO:4)) has been administered in male mice. This compound has been administered via a cannula directly into the brain (ICV administration) or through an injection into the spinal cord (IT administration), at three different doses each administration route (2 nmol, 5 nmol, and 10 nmol). After compound administration, the mice were monitored in TSE metabolic cages, which record food intake, water intake, ambulatory activity (how many times a mouse breaks a light beam, which can give an indication of toxicity), respiratory-exchange ratio (RER, ratio between amount of CO2 produced in metabolism and O2 consumed, giving an indication if fat [RER value closer to 0.7] or carbohydrates [RER value closer to 1] is the energy source being utilized), and energy expenditure.

[2] = biological target: T1, mMC1R (Mus musculus, UniProt Q01727); assay: cAMP AlphaScreen agonist assay, HEK293 cells stably expressing mouse MC1R; conditions: read-out: mMC1R EC50; agonist, cAMP
[3] = biological target: T2, mMC3R (Mus musculus, UniProt P33033); assay: cAMP AlphaScreen agonist assay, HEK293 cells stably expressing mouse MC3R; conditions: read-out: mMC3R EC50; agonist, cAMP
[4] = biological target: T3, mMC4R (Mus musculus, UniProt P56450); assay: cAMP AlphaScreen agonist assay, HEK293 cells stably expressing mouse MC4R
[5] = biological target: T4, mMC5R (Mus musculus, UniProt P41149); assay: cAMP AlphaScreen agonist assay, HEK293 cells stably expressing mouse MC5R; conditions: read-out: mMC5R EC50; agonist, cAMP
[6] = biological target: T3, mMC4R; design: expressed in transfected cells; host or cells: HEK293; conditions: AGRP intrinsic potency; cited from earlier work
[7] = biological target: T1, mMC1R; design: expressed in transfected cells; host or cells: HEK293; conditions: literature value; read-out: reported agonist potency at the mMC1R; cited from earlier work
[8] = biological target: T2, mMC3R; design: expressed in transfected cells; host or cells: HEK293; conditions: literature value; read-out: reported agonist potency at the mMC3R; cited from earlier work
[9] = biological target: T3, mMC4R; design: expressed in transfected cells; host or cells: HEK293; conditions: cited from earlier work; for EC50: literature value, read-out: reported agonist potency at the mMC4R; for reported selectivity for the mMC4R over the mMC3R: literature chimeric ligands
[10] = biological target: T4, mMC5R; design: expressed in transfected cells; host or cells: HEK293; conditions: literature value; read-out: reported agonist potency at the mMC5R; cited from earlier work
[11] = compound versus vehicle treated animals

T4 sequence (P41149 whole entry): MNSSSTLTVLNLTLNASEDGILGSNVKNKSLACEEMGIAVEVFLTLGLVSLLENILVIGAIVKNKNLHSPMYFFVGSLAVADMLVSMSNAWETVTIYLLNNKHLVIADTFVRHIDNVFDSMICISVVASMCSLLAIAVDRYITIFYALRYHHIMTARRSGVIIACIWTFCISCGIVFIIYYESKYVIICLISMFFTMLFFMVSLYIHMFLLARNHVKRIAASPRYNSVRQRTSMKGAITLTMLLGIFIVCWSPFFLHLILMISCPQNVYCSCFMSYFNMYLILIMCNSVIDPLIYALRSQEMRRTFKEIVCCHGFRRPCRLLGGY
T3 sequence (P56450 whole entry): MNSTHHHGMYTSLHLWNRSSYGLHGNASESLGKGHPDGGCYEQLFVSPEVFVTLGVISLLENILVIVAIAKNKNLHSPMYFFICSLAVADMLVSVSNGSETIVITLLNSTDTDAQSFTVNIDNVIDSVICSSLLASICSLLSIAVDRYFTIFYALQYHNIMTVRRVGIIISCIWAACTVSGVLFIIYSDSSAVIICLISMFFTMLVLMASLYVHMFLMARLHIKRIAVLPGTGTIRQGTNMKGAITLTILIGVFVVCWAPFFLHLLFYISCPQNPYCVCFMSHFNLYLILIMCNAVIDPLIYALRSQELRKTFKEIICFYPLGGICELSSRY
T1 sequence (Q01727 whole entry): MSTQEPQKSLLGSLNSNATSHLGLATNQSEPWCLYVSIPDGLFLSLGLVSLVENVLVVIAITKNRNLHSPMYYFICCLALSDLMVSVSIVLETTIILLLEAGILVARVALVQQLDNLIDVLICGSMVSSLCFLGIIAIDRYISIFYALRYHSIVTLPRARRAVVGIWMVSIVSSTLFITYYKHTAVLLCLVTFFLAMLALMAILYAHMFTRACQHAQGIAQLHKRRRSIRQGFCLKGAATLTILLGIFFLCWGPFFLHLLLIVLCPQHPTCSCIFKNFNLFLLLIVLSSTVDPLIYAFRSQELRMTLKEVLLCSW
T2 sequence (P33033 whole entry): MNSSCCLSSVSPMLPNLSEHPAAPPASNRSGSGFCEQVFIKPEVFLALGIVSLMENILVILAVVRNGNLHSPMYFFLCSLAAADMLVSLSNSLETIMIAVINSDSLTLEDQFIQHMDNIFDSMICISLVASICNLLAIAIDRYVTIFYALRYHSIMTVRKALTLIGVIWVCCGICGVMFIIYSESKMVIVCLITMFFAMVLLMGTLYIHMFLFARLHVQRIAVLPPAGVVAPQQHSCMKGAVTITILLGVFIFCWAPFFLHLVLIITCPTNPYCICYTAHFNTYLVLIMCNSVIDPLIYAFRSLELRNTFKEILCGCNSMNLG

Molecule: C[C@@H]1NC(=O)[C@H](CN)NC(=O)[C@H](Cc2c[nH]c3ccccc23)NC(=O)[C@H](CCCNC(=N)N)NC(=O)[C@@H](Cc2ccccc2)NC(=O)[C@H](Cc2c[nH]cn2)NC(=O)[C@@H]2CCCN2C(=O)[C@H]2CCCN2C1=O [MDE6-5-2c, c[Pro-His-DPhe-Arg-Trp-Dap-Ala-DPro]] (cyclo(H[dF]RW[Dap]A[dP]P))
cumulative food intake following ICV administration, 10 nmol ([1]; ICV, 10 nmol, 72 h): decreased food intake through 72 h | Respiratory Exchange Ratio (RER) effect, ICV 10 nmol ([1]; ICV, 10 nmol, first 24 h, versus lower doses): more robust | cumulative food intake following ICV administration ([1]; ICV, 2, 5, 10 nmol, first 24 h, dose response): further decreased food intake | Respiratory Exchange Ratio (RER), ICV 2 and 5 nmol ([1]; ICV, 2 and 5 nmol, first 24 h): decreased RER compared to vehicle control | Respiratory Exchange Ratio (RER) effect, IT administration ([1]; IT): more modest effect | cumulative food intake following IT administration ([1]; IT, 2, 5, 10 nmol, not dose-responsive): decreased food intake was observed | energy expenditure [1, 11]: not different | water intake [1, 11]: not different | duration of effects on RER following a single dose ([1]; single dose, all cases): 24 h

ambulatory activity [1, 11]: not different | EC50 [2]: 1.1 nM | EC50 [3]: 40 nM | selectivity for the mMC4R over the mMC3R ([4]; agonist potency): 25 fold | EC50 ([4]; read-out: mMC4R EC50, agonist, cAMP): 1.6 nM | EC50 [5]: 0.3 nM
Molecule: C[C@@H]1NC(=O)[C@H](CN)NC(=O)[C@H](Cc2c[nH]c3ccccc23)NC(=O)[C@H](CCCNC(=N)N)NC(=O)[C@@H](Cc2ccccc2)NC(=O)[C@H](Cc2cnc[nH]2)NC(=O)[C@@H]2CCCN2C(=O)[C@H]2CCCN2C1=O [MDE6-5-2c, c[Pro-His-DPhe-Arg-Trp-Dap-Ala-DPro]] (cyclo(H[dF]RW[Dap]A[dP]P))

Molecule: AGRP: agouti-related protein, naturally occurring melanocortin antagonist (SSRRCVRLHESCLGQQVPCCDPCATCYCRFFNAFCYCRKLGTAMNPCSRT; ends and bridges not checked; cysteine pairing not given here; UniProt O00253 83-132, looked up)
lower potency at the mMC3R versus the mMC4R [6]: ~10 fold

Molecule: Ac-mini-(His-DPhe-Arg-Trp)hAGRP-NH2
EC50 [7]: 0.16 nM | EC50 [8]: 30 nM | EC50 [9]: 1.4 nM | EC50 [10]: 0.6 nM and 0.56 nM

Molecule: Tyr-c[Asp-His-DPhe-Arg-Trp-Asn-Ala-Phe-Dap]-Tyr-NH2 (FRWNAF; Tyr-Asp-His, Dap lactam, Tyr-NH2; printed: Phe-Arg-Trp-Asn-Ala-Phe-) [previously reported lactam bridged AGRP/NDP-MSH chimeric ligand]
EC50 [7]: 0.2 nM | EC50 [8]: 1 nM | reported selectivity for the mMC4R over the mMC3R [9]: 5 fold | EC50 [9]: 0.2 nM | EC50 [10]: 0.5 nM

Molecule: Tyr-c[Cys-His-DPhe-Arg-Trp-Asn-Ala-Phe-Cys]-Tyr-NH2 (FRWNAFC; not fully specified; Tyr-Cys-His, disulfide, Tyr-NH2; printed: Phe-Arg-Trp-Asn-Ala-Phe-Cys) [previously reported disulfide bridged AGRP/NDP-MSH chimeric ligand]
EC50 [7]: 0.35 nM | EC50 [8]: 2 nM | reported selectivity for the mMC4R over the mMC3R [9]: 7 fold | EC50 [9]: 0.3 nM | EC50 [10]: 2 nM
